Test results published in patent US20120083476A1, “HETEROARYL-SUBSTITUTED SPIROCYCLIC DIAMINE UREA MODULATORS OF FATTY ACID AMIDE HYDROLASE” (Janssen Pharmaceutica NV, priority 2009, published 2012).
Counter-ions that a name gives are not always drawn.

Biological target: T1, FAAH (Homo sapiens, UniProt O00519)
T1 sequence (O00519 1-579): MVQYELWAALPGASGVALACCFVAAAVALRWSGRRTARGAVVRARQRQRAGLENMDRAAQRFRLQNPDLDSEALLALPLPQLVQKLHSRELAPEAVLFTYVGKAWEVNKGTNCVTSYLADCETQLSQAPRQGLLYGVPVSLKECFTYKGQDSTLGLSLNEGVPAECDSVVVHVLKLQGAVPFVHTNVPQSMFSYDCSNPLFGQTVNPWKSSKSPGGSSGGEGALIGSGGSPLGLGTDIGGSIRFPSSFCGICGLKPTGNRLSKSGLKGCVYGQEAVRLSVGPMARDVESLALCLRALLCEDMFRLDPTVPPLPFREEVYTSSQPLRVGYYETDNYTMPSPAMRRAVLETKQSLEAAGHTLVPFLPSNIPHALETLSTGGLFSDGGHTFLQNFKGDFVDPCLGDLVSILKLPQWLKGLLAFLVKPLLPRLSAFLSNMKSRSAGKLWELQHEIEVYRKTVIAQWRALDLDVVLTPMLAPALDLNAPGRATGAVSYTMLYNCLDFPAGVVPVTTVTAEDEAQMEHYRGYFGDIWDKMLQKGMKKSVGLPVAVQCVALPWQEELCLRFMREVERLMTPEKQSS
Test: Assay Method 1: human FAAH assay (3H-anandamide hydrolysis in cell homogenate)
Assay type: biochemical
Parameters: expressed in transfected cells; host or cells: SK-N-MC cells stably transfected with human FAAH cDNA (G418 selection); alternatively T84 cell pellets
Conditions: read-out: Assay 1 IC50
Experimental: A. Transfection of Cells with Human FAAH
A 10-cm tissue culture dish with a confluent monolayer of SK-N-MC cells was split 2 days (d) prior to transfection. Using sterile technique, the media was removed and the cells were detached from the dish by the addition of trypsin. One fifth of the cells were then placed onto a new 10-cm dish. Cells were grown in a 37° C. incubator with 5% CO2 in Minimal Essential Media Eagle with 10% Fetal Bovine Serum. After 2 d, cells were approximately 80% confluent. These cells were removed from the dish with trypsin and pelleted in a clinical centrifuge. The pellet was re-suspended in 400 μL complete media and transferred to an electroporation cuvette with a 0.4 cm gap between the electrodes. Supercoiled human FAAH cDNA (1 μg) was added to the cells and mixed. The voltage for the electroporation was set at 0.25 kV, and the capacitance was set at 960 μF. After electroporation, the cells were diluted into complete media (10 mL) and plated onto four 10-cm dishes. Because of the variability in the efficiency of electroporation, four different concentrations of cells were plated. […] The cells were allowed to recover for 24 h before adding the selection media (complete media with 600 μg/mL G418). After 10 d, dishes were analyzed for surviving colonies of cells. Dishes with well-isolated colonies were used. Cells from individual colonies were isolated and tested.
T84 frozen cell pellets or transfected SK-N-MC cells (contents of 1×15 cm culture dishes) were homogenized in 50 mL of FAAH assay buffer (125 mM Tris, 1 mM EDTA, 0.2% Glycerol, 0.02% Triton X-100, 0.4 mM Hepes, pH 9). The assay mixture consisted of 50 μL of the cell homogenate, 10 μL of the test compound, and 40 μL of anandamide [1-^3H-ethanolamine] (^3H-AEA, Perkin-Elmer, 10.3 Ci/mmol), which was added last, for a final tracer concentration of 80 nM. The reaction mixture was incubated at rt for 1 h. During the incubation, 96-well Multiscreen filter plates (catalog number MAFCNOB50; Millipore, Bedford, Mass., USA) were loaded with 25 of activated charcoal (Multiscreen column loader, catalog number MACL09625, Millipore) and washed once with 100 μL of MeOH. Also during the incubation, 96-well DYNEX MicroLite plates (catalog number NL510410) were loaded with 100 μL of MicroScint40 (catalog number 6013641, Packard Bioscience, Meriden, Conn., USA). After the 1 h incubation, 60 μL of the reaction mixture were transferred to the charcoal plates, which were then assembled on top of the DYNEX plates using Centrifuge Alignment Frames (catalog number MACF09604, Millipore). The unbound labeled ethanolamine was centrifuged through to the bottom plate (5 min at 2000 rpm), which was preloaded with the scintillant, as described above. The plates were sealed and left at rt for 1 h before counting on a Hewlett Packard TopCount.
Compounds were tested in free base or trifluoroacetic acid salt forms.

IC50 | SMILES
0.02 µM | O=C(Nc1ccc(-n2nccn2)nc1)N1CCC2(CCN(Cc3cccc(Oc4ccc(Cl)cc4)c3)C2)CC1 [Example 1, 2-[3-(4-Chloro-phenoxy)-benzyl]-2,8-diaza-spiro[4.5]decane-8-carboxylic acid (6-[1,2,3]triazol-2-yl-pyridin-3-yl)-amide]
9 µM | O=C(Nc1cccnc1)N1CCC2(CCCN2Cc2cccc(Oc3ccc(Cl)cc3)c2)C1 (stereo not drawn) [Example 7, 1-[3-(4-Chloro-phenoxy)-benzyl]-1,7-diaza-spiro[4.4]nonane-7-carboxylic acid pyridin-3-ylamide]
0.5 µM | O=C(Nc1cnc2[nH]ccc2c1)N1CC2(CCN(Cc3ccc4c(c3)OC(F)(F)O4)CC2)C1 [Example 89, 7-(2,2-Difluoro-benzo[1,3]dioxol-5-ylmethyl)-2,7-diaza-spiro[3.5]nonane-2-carboxylic acid (1H-pyrrolo[2,3-b]pyridin-5-yl)-amide]
8 µM | O=C(Nc1cccnc1)N1CC2(CCN(Cc3cccc(Oc4ccc(OCC(F)(F)F)cc4)c3)CC2)C1 [Example 128, 7-{3-[4-(2,2,2-Trifluoro-ethoxy)-phenoxy]-benzyl}-2,7-diaza-spiro[3.5]nonane-2-carboxylic acid pyridin-3-ylamide]

Biological target: T2, Rat FAAH (Rattus norvegicus, UniProt P97612)
T2 construct: expressed in transfected cells; host or cells: SK-N-MC cells stably transfected with rat FAAH cDNA (G418 selection)
T2 sequence (P97612 1-579): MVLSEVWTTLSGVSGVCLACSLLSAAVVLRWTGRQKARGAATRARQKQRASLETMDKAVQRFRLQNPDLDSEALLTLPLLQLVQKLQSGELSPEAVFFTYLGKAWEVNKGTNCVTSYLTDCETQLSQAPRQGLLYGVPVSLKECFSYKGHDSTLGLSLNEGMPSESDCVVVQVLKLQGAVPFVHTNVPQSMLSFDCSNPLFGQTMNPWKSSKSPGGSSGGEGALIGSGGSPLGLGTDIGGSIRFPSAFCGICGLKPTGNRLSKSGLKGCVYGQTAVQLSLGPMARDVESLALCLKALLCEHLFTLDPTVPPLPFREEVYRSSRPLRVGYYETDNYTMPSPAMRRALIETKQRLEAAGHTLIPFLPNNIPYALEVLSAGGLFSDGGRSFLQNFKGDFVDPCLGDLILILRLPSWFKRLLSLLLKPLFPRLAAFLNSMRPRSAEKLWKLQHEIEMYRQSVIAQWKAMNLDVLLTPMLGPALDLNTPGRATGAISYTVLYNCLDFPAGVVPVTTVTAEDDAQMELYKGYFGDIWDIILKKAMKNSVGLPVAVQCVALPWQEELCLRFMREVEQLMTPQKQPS
Test: Assay Method 2: rat FAAH assay (3H-anandamide hydrolysis in cell homogenate)
Assay type: biochemical
Conditions: read-out: Assay 2 IC50
Experimental: A. Transfection of Cells with Rat FAAH A 10-cm tissue culture dish with a confluent monolayer of SK-N-MC cells was split 2 days (d) prior to transfection. Using sterile technique, the media was removed and the cells were detached from the dish by the addition of trypsin. One fifth of the cells were then placed onto a new 10-cm dish. Cells were grown in a 37° C. incubator with 5% CO2 in Minimal Essential Media Eagle with 10% Fetal Bovine Serum. After 2 d, cells were approximately 80% confluent. These cells were removed from the dish with trypsin and pelleted in a clinical centrifuge. The pellet was re-suspended in 400 μL complete media and transferred to an electroporation cuvette with a 0.4 cm gap between the electrodes. Supercoiled rat FAAH cDNA (1 μg) was added to the cells and mixed. The voltage for the electroporation was set at 0.25 kV, and the capacitance was set at 960 μF. After electroporation, the cells were diluted into complete media (10 mL) and plated onto four 10-cm dishes. Because of the variability in the efficiency of electroporation, four different concentrations of cells were plated. The ratios used were 1:20, 1:10, and 1:5, with the remainder of the cells being added to the fourth dish. The cells were allowed to recover for 24 h before adding the selection media (complete media with 600 μg/mL G418). After 10 d, dishes were analyzed for surviving colonies of cells. Dishes with well-isolated colonies were used. Cells from individual colonies were isolated and tested. […] B. FAAH Assay T84 frozen cell pellets or transfected SK-N-MC cells (contents of 1×15 cm culture dishes) were homogenized in 50 mL of FAAH assay buffer (125 mM Tris, 1 mM EDTA, 0.2% Glycerol, 0.02% Triton X-100, 0.4 mM Hepes, pH 9). […] The reaction mixture was incubated at rt for 1 h. During the incubation, 96-well Multiscreen filter plates (catalog number MAFCNOB50; Millipore, Bedford, Mass., USA) were loaded with 25 of activated charcoal (Multiscreen column loader, catalog number MACL09625, Millipore) and washed once with 100 μL of MeOH. Also during the incubation, 96-well DYNEX MicroLite plates (catalog number NL510410) were loaded with 100 μL of MicroScint40 (catalog number 6013641, Packard Bioscience, Meriden, Conn., USA). After the 1 h incubation, 60 μL of the reaction mixture were transferred to the charcoal plates, which were then assembled on top of the DYNEX plates using Centrifuge Alignment Frames (catalog number MACF09604, Millipore). The unbound labeled ethanolamine was centrifuged through to the bottom plate (5 min at 2000 rpm), which was preloaded with the scintillant, as described above. The plates were sealed and left at rt for 1 h before counting on a Hewlett Packard TopCount. Results for compounds tested in these assays are summarized in Table 1, as an average of results obtained. Compounds were tested in free base or trifluoroacetic acid salt forms. Where activity is shown as greater than (>) a particular value, the value is the solubility limit of the compound in the assay medium or the highest concentration tested in the assay.

SMILES | IC50
O=C(Nc1ccc(-n2nccn2)nc1)N1CCC2(CCN(Cc3cccc(Oc4ccc(Cl)cc4)c3)C2)CC1 [Example 1, 2-[3-(4-Chloro-phenoxy)-benzyl]-2,8-diaza-spiro[4.5]decane-8-carboxylic acid (6-[1,2,3]triazol-2-yl-pyridin-3-yl)-amide] | 0.06 µM
O=C(Nc1nnn[nH]1)N1CC2(CCN(Cc3cccc(Oc4ccc(Cl)cc4)c3)CC2)C1 [Example 51, 7-[3-(4-Chloro-phenoxy)-benzyl]-2,7-diaza-spiro[3.5]nonane-2-carboxylic acid (1H-tetrazol-5-yl)-amide, trifluoroacetic acid salt] | 0.2 µM
O=C(Nc1cccnc1)N1CC2(CCN(Cc3ccc4c(c3)OC(F)(F)O4)CC2)C1 [Example 87, 7-(2,2-Difluoro-benzo[1,3]-dioxol-5-ylmethyl)-2,7-diaza-spiro[3.5]nonane-2-carboxylic acid pyridin-3-ylamide] | > 10 µM
O=C(Nc1cccnc1)N1CC2(CCN(Cc3cccc(Cl)c3)CC2)C1 [Example 99, 7-(3-Chloro-benzyl)-2,7-diaza-spiro[3.5]nonane-2-carboxylic acid pyridin-3-ylamide] | > 10 µM
O=C(Nc1cccnc1)N1CC2(CCN(Cc3ccc(C(F)(F)F)cc3)CC2)C1 [Example 102, N-(pyridin-3-yl)-7-(4-(trifluoromethyl)benzyl)-2,7-diazaspiro[3.5]nonane-2-carboxamide] | > 10 µM
O=C(Nc1cccnc1)N1CC2(CCN(Cc3ccc(Cl)c(C(F)(F)F)c3)CC2)C1 [Example 109, 7-(4-chloro-3-(trifluoromethyl)benzyl)-N-(pyridin-3-yl)-2,7-diazaspiro[3.5]nonane-2-carboxamide] | > 10 µM

Next, values leading:

IC50 | SMILES
6 µM | O=C(Nc1cccnc1)N1CCCC2(CN(Cc3cccc(Oc4ccc(Cl)cc4)c3)C2)C1 [Example 26, 2-(3-(4-chlorophenoxy)benzyl)-N-(pyridin-3-yl)-2,6-diazaspiro[3.5]nonane-6-carboxamide]
0.01 µM | O=C(Nc1cnc2ccccc2c1)N1CCCC2(CN(Cc3cccc(Oc4ccc(Cl)cc4)c3)C2)C1 [Example 32, 2-(3-(4-chlorophenoxy)benzyl)-N-(quinolin-3-yl)-2,6-diazaspiro[3.5]nonane-6-carboxamide]
> 10 µM | O=C(Nc1ccc(-n2cnnc2)nc1)N1CC2(CCN(Cc3cccc(Oc4ccc(Cl)cc4)c3)CC2)C1 [Example 47, 7-[3-(4-Chloro-phenoxy)-benzyl]-2,7-diaza-spiro[3.5]nonane-2-carboxylic acid (6-[1,2,4]triazol-4-yl-pyridin-3-yl)-amide, trifluoroacetic acid salt]
0.02 µM | O=C(Nc1cnc(-c2ccccc2)nc1)N1CC2(CCN(Cc3cccc(Oc4ccc(Cl)cc4)c3)CC2)C1 [Example 83, 7-(3-(4-chlorophenoxy)benzyl)-N-(2-phenylpyrimidin-5-yl)-2,7-diazaspiro[3.5]nonane-2-carboxamide, trifluoroacetic acid salt]
> 10 µM | O=C(Nc1cccnc1)N1CC2(CCN(Cc3ccccc3Cl)CC2)C1 [Example 98, 7-(2-Chloro-benzyl)-2,7-diaza-spiro[3.5]nonane-2-carboxylic acid pyridin-3-ylamide]
